From patent US20080234262A1 (Wyeth, priority 2007, published 2008)
Read-outs that look alike come from different tables or passages of the source.

Columns and labels:
breast line MDA468 = test: In vitro cell culture growth assay (MTS), MDA468; assay type: cell-based, human; settings: Homo sapiens, 72 h, MDA468 cells, three days after drug treatment
How it was run: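 MDA468 or LNCap cells received inhibitors one day after plating and were grown for three days. Viable cell density read by MTS conversion, absorbance 490 nm, expressed as percent of control growth versus vehicle-treated cells on the same plate.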

prostate line LNCap = test: In vitro cell culture growth assay (MTS), LNCap; assay type: cell-based, human; settings: Homo sapiens, 72 h, LNCap cells, three days after drug treatment
PI3K = PI3K (Homo sapiens, UniProt P42336); test: Fluorescence polarization assay for PI3K; assay type: biochemical;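 note: PI3K kinase reaction on PIP2 with ATP, 30-60 min, product sensed by GST-GRP with red probe in fluorescence polarization (mP), controls without enzyme and at zero time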
Sequence of PI3K (P42336 whole entry): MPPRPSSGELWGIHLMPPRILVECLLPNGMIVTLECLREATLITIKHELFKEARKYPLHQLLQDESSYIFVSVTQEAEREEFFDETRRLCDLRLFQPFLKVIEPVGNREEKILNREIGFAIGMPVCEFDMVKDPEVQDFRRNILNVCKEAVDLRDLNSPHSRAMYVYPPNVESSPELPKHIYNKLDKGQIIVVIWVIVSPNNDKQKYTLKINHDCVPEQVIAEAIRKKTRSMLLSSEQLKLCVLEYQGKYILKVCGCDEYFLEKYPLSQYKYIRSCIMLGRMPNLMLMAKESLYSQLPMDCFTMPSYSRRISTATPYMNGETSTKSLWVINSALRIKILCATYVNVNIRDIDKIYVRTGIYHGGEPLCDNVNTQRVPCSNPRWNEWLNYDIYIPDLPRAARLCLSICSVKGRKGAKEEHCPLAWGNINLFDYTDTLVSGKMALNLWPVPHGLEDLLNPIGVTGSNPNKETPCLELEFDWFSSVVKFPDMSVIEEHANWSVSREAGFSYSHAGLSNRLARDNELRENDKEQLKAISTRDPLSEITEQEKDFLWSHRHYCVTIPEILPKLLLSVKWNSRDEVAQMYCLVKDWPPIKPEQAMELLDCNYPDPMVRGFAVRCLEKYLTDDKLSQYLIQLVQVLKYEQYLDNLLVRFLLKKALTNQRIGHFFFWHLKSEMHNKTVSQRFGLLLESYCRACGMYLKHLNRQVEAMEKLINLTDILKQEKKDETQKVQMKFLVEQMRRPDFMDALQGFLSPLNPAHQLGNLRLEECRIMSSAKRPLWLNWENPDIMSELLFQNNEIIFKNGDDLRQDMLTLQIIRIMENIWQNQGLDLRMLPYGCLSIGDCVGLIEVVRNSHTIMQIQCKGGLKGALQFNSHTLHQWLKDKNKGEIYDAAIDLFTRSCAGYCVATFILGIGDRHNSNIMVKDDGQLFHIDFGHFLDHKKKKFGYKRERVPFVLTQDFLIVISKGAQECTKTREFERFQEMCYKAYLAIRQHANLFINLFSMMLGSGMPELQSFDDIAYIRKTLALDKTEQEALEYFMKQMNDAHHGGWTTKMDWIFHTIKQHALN
Sequence of PI3K (P27986 whole entry partner): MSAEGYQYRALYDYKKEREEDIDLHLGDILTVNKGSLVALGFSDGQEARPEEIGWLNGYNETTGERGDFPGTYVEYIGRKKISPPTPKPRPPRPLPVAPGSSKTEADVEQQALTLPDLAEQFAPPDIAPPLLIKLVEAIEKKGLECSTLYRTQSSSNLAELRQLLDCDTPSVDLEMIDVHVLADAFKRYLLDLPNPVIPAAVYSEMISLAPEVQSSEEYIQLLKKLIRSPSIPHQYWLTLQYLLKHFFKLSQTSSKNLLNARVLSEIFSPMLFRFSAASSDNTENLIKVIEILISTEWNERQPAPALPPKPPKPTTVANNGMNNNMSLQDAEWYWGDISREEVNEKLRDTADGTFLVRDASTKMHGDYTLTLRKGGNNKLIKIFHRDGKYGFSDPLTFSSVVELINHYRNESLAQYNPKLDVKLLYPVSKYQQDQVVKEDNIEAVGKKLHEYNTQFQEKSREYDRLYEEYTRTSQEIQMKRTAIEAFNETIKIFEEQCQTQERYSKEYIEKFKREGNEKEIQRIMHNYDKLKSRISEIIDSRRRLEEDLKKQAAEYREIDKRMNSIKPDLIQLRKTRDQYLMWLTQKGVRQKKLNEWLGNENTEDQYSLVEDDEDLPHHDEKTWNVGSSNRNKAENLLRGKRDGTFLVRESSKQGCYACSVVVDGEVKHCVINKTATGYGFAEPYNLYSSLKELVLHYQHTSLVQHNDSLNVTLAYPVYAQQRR

Row | IC50 (prostate line LNCap; LNCaP) [µM] | IC50 (PI3K; PI3Kα, read-out: PI3Kα IC50) [µM] | SMILES | IC50 (breast line MDA468) [µM] | IC50 (prostate line LNCap) [µM] | IC50 (PI3K; PI3Kα IC50, PI3Kα) [µM]
1 | 1.05 | 1.16 | O=C(c1ccc(Br)nc1)N1CCC(n2ncc3c(N4CCOCC4)nc(-c4ccc5[nH]ccc5c4)nc32)CC1 [Compound 203] | 3 | – | –
2 | 3 | 0.659 | CCOC(=O)Nc1ccc(-c2nc(N3CCOCC3)c3cnn(C4CCN(Cc5ccccc5)CC4)c3n2)cc1 [Compound 207, ethyl {4-[1-(1-benzylpiperidin-4-yl)-4-morpholin-4-yl-1H-pyrazolo[3,4-d]pyrimidin-6-yl]phenyl}carbamate] | 5.2 | – | –
3 | 5.8 | 3.79 | CC(C)OC(=O)Nc1ccc(-c2nc(N3CCOCC3)c3cnn(C4CCN(Cc5ccccc5)CC4)c3n2)cc1 [Compound 208] | 11 | – | –
4 | 0.17 | 0.023 | Nc1ncc(-c2nc(N3CCOCC3)c3cnn(C4CCN(Cc5cccnc5)CC4)c3n2)cn1 [Compound 211] | 0.8 | – | –
5 | 1.2 | 1.4 | c1ccc(N2CCC(n3ncc4c(N5CCOCC5)nc(-c5ccc6[nH]ccc6c5)nc43)CC2)nc1 [Compound 217, 6-(1H-indol-5-yl)-4-morpholin-4-yl-1-(1-pyridin-2-ylpiperidin-4-yl)-1H-pyrazolo[3,4-d]pyrimidine] | 1.9 | – | –
6 | 0.15 | 0.548 | CNC(=O)Nc1ccc(-c2nc(N3CCOCC3)c3cnn(C4CCN(C(=O)c5cccnc5)CC4)c3n2)cc1 [Compound 219] | 0.6 | – | –
7 | 5.8 | 1.92 | CNC(=O)Nc1cccc(-c2nc(N3CCOCC3)c3cnn(C4CCN(Cc5ccccc5)CC4)c3n2)c1 [Compound 228, N-{3-[1-(1-benzylpiperidin-4-yl)-4-morpholin-4-yl-1H-pyrazolo[3,4-d]pyrimidin-6-yl]phenyl}-N′-methylurea] | 6.8 | – | –
8 | 60 | 6 | c1ccc(CN2CCC(n3ncc4c(N5CCOCC5)nc(-c5cnc6ccccc6c5)nc43)CC2)cc1 [Compound 230, 3-[1-(1-benzylpiperidin-4-yl)-4-morpholin-4-yl-1H-pyrazolo[3,4-d]pyrimidin-6-yl]quinoline] | 22 | – | –
9 | 3.7 | 0.443 | CC(=O)Nc1ccc(-c2nc(N3CCOCC3)c3cn[nH]c3n2)cc1 [Compound 233, N-[4-(4-morpholin-4-yl-1H-pyrazolo[3,4-d]pyrimidin-6-yl)phenyl]acetamide] | 8.5 | – | –
10 | 1 | 0.481 | CN(C)CC=CC(=O)N1CCC(n2ncc3c(N4CCOCC4)nc(-c4ccc5[nH]ccc5c4)nc32)CC1 [Compound 234, 4-{4-[6-(1H-indol-5-yl)-4-morpholin-4-yl-1H-pyrazolo[3,4-d]pyrimidin-1-yl]piperidin-1-yl}-N,N-dimethyl-4-oxobut-2-en-1-amine] | 2 | – | –
11 | 4.2 | 2.42 | c1cc2cc(-c3nc(N4CCOCC4)c4cnn(C5CCCCO5)c4n3)ccc2[nH]1 (stereo not drawn) [Compound 237, 6-(1H-indol-5-yl)-4-morpholin-4-yl-1-(tetrahydro-2H-pyran-2-yl)-1H-pyrazolo[3,4-d]pyrimidine] | 1 | – | –
12 | 2.5 | 3.75 | CC(C)N1CCC(n2ncc3c(N4CCOCC4)nc(-c4ccc5[nH]ccc5c4)nc32)CC1 [Compound 238, 6-(1H-indol-5-yl)-1-(1-isopropylpiperidin-4-yl)-4-morpholin-4-yl-1H-pyrazolo[3,4-d]pyrimidine] | 2.9 | – | –
13 | 0.78 | 3.09 | c1ccc(CCN2CCC(n3ncc4c(N5CCOCC5)nc(-c5ccc6[nH]ccc6c5)nc43)CC2)cc1 [Compound 239, 6-(1H-indol-5-yl)-4-morpholin-4-yl-1-[1-(2-phenylethyl)piperidin-4-yl]-1H-pyrazolo[3,4-d]pyrimidine] | 3.1 | – | –
14 | 3.8 | 2.67 | CC(c1ccccc1)N1CCC(n2ncc3c(N4CCOCC4)nc(-c4ccc5[nH]ccc5c4)nc32)CC1 (stereo not drawn) [Compound 240, 6-(1H-indol-5-yl)-4-morpholin-4-yl-1-[1-(1-phenylethyl)piperidin-4-yl]-1H-pyrazolo[3,4-d]pyrimidine] | 3.5 | – | –
15 | 2.4 | 5 | COCCN1CCC(n2ncc3c(N4CCOCC4)nc(-c4ccc5[nH]ccc5c4)nc32)CC1 [Compound 241, 6-(1H-indol-5-yl)-1-[1-(2-methoxyethyl)piperidin-4-yl]-4-morpholin-4-yl-1H-pyrazolo[3,4-d]pyrimidine] | 4.2 | – | –
16 | 0.7 | 0.692 | O=C(Cc1ccccc1)N1CCC(n2ncc3c(N4CCOCC4)nc(-c4ccc5[nH]ccc5c4)nc32)CC1 [Compound 242, 6-(1H-indol-5-yl)-4-morpholin-4-yl-1-[1-(phenylacetyl)piperidin-4-yl]-1H-pyrazolo[3,4-d]pyrimidine] | 3 | – | –
17 | 0.8 | 2.66 | NC(=O)CN1CCC(n2ncc3c(N4CCOCC4)nc(-c4ccc5[nH]ccc5c4)nc32)CC1 [Compound 245, 2-{4-[6-(1H-indol-5-yl)-4-morpholin-4-yl-1H-pyrazolo[3,4-d]pyrimidin-1-yl]piperidin-1-yl}acetamide] | 2.8 | – | –
18 | 1.8 | 3.99 | OCCN1CCC(n2ncc3c(N4CCOCC4)nc(-c4ccc5[nH]ccc5c4)nc32)CC1 [Compound 246, 2-{4-[6-(1H-indol-5-yl)-4-morpholin-4-yl-1H-pyrazolo[3,4-d]pyrimidin-1-yl]piperidin-1-yl}ethanol] | 3 | – | –

More lines, now with the values behind:

Row | SMILES | IC50 (prostate line LNCap; LNCaP) [µM] | IC50 (PI3K; PI3Kα, read-out: PI3Kα IC50) [µM] | IC50 (breast line MDA468) [µM] | IC50 (prostate line LNCap) [µM] | IC50 (PI3K; PI3Kα IC50, PI3Kα) [µM]
19 | COc1ccc(CN2CCC(n3ncc4c(N5CCOCC5)nc(-c5ccc6[nH]ccc6c5)nc43)CC2)cn1 [Compound 176] | 1 | 0.352 | 2.6 | – | –
20 | COc1ncccc1CN1CCC(n2ncc3c(N4CCOCC4)nc(-c4ccc5[nH]ccc5c4)nc32)CC1 [Compound 177] | 1.3 | 0.885 | 3.1 | – | –
21 | c1ccc(CN2CCC(n3ncc4c(N5CCOCC5)nc(-c5ccc6[nH]ccc6c5)nc43)CC2)nc1 [Compound 178] | 0.55 | 0.509 | 2.1 | – | –
22 | c1cc(CN2CCC(n3ncc4c(N5CCOCC5)nc(-c5ccc6[nH]ccc6c5)nc43)CC2)ccn1 [Compound 179] | 0.6 | 0.649 | 1.8 | – | –
23 | CC(=O)Nc1ccc(-c2nc(N3CCOCC3)c3cnn(Cc4ccccc4)c3n2)cc1 [Compound 180] | 2 | 0.405 | 5.8 | – | –
24 | COc1cc(-c2nc(N3CCOCC3)c3cnn(C4CCN(Cc5ccccc5)CC4)c3n2)ccc1N [Compound 181] | 1.5 | 2.48 | 5.5 | – | –
25 | COc1cc(-c2nc(N3CCOCC3)c3cnn(C4CCN(Cc5ccccc5)CC4)c3n2)ccc1NC(C)=O [Compound 182] | 5 | 3.93 | 4.1 | – | –
26 | Nc1ccc(-c2nc(N3CCOCC3)c3cnn(C4CCN(Cc5ccccc5)CC4)c3n2)cc1[N+](=O)[O-] [Compound 183, 4-[1-(1-benzylpiperidin-4-yl)-4-morpholin-4-yl-1H-pyrazolo[3,4-d]pyrimidin-6-yl]-2-nitroaniline] | 11 | 1.17 | 13 | – | –
27 | CC(=O)Nc1ccc(-c2nc(N3CCOCC3)c3cnn(C4CCN(Cc5ccccc5)CC4)c3n2)cc1[N+](=O)[O-] [Compound 184, N-{4-[1-(1-benzylpiperidin-4-yl)-4-morpholin-4-yl-1H-pyrazolo[3,4-d]pyrimidin-6-yl]-2-nitrophenyl}acetamide] | 60 | 3.08 | 60 | – | –
28 | CCCCNC(=O)Nc1ccc(-c2nc(N3CCOCC3)c3cnn(C4CCN(Cc5ccccc5)CC4)c3n2)cc1 [Compound 185] | 1.2 | 0.18 | 3.9 | – | –
29 | CC(C)C(=O)Nc1ccc(-c2nc(N3CCOCC3)c3cnn(C4CCN(Cc5ccccc5)CC4)c3n2)cc1 [Compound 186] | 4 | 3.42 | 3.9 | – | –
30 | CC(C)(C)C(=O)Nc1ccc(-c2nc(N3CCOCC3)c3cnn(C4CCN(Cc5ccccc5)CC4)c3n2)cc1 [Compound 187] | 35 | 7.77 | 40 | – | –
31 | c1ccc(CN2CCC(n3ncc4c(N5CCOCC5)nc(-c5ccn[nH]5)nc43)CC2)cc1 [Compound 188] | 7 | 3 | 19 | – | –
32 | c1ccc(CN2CCC(n3ncc4c(N5CCOCC5)nc(-c5cn[nH]c5)nc43)CC2)cc1 [Compound 189] | 3.2 | 0.765 | 8.3 | – | –
33 | c1ccc(CN2CCC(n3ncc4c(N5CCOCC5)nc(-c5ccc6nonc6c5)nc43)CC2)cc1 [Compound 190] | 6.2 | 1.32 | 6 | – | –
34 | c1ccc(CN2CCC(n3ncc4c(N5CCOCC5)nc(-c5ccc(NCCN6CCOCC6)nc5)nc43)CC2)cc1 [Compound 193] | 10 | 8.25 | 12 | – | –
35 | C=CC(=O)N1CCC(n2ncc3c(N4CCOCC4)nc(-c4ccc5[nH]ccc5c4)nc32)CC1 [Compound 194] | 0.95 | 1.06 | 3 | – | –
36 | O=C(c1ccc[n+]([O-])c1)N1CCC(n2ncc3c(N4CCOCC4)nc(-c4ccc5[nH]ccc5c4)nc32)CC1 [Compound 197] | 2.5 | 3.06 | 3.8 | – | –
37 | O=C(c1ccc(F)nc1)N1CCC(n2ncc3c(N4CCOCC4)nc(-c4ccc5[nH]ccc5c4)nc32)CC1 [Compound 201] | 0.74 | 2.02 | 3 | – | –
38 | O=C(Oc1ccccc1)N1CCC(n2ncc3c(N4CCOCC4)nc(-c4ccc5[nH]ccc5c4)nc32)CC1 [Compound 243, phenyl 4-[6-(1H-indol-5-yl)-4-morpholin-4-yl-1H-pyrazolo[3,4-d]pyrimidin-1-yl]piperidine-1-carboxylate] | – | – | 4.3 | 1.3 | 0.535
